Target: T1, Papain (Carica papaya, UniProt P00784)
T1 sequence (P00784 whole entry): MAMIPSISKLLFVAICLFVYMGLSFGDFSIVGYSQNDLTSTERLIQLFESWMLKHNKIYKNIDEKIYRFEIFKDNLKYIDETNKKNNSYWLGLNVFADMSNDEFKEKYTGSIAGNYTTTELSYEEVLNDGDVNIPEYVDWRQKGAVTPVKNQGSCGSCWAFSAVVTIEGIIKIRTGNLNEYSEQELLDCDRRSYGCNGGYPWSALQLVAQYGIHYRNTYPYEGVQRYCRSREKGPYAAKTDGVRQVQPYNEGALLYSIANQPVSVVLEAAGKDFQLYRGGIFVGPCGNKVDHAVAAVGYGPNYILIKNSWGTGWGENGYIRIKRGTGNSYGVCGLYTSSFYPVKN
Assay: Pseudo-first order rate constant for inhibition of thiol-dependent papain enzyme

SMILES	koff
CN(N=O)c1cccc(O)c1	0.0006 s⁻¹
CN(N=O)c1ccc(Cl)cc1	0.000283 s⁻¹
CN(N=O)c1ccccc1O	0.000183 s⁻¹
CN(N=O)c1ccccc1	0.00095 s⁻¹
CN(N=O)c1ccccc1[N+](=O)[O-]	0.000433 s⁻¹

Reference: BindingDB's records for doi:10.7270/Q2M61NDW (n/a, 1996)
